Assay results from patent US8758769B2, “Composition for preventing and treating acetaminophen inducing liver injury comprising the protein extract from Porphyra yezoensis” (Pukyong National University Industry Academic Cooperation …, priority 2006, dated 2014).

Columns and labels:
[1] = tested on: PCNA and caspase-3 in liver cell; experiment: Liver cell injury inhibition by seaweed protein: PCNA and caspase-3 expression (western blot); assay type: cell-based; conditions: 20 mM AAP with or without seaweed protein
Protocol: Through the above results, it is confirmed that the cell apoptosis of the liver cell is induced by the increase of the AAP concentration and accordingly, the seaweed protein and AAP are processed together and the liver injury inhibition effect of the seaweed protein by AAP is confirmed.
At first, the degree of the PCNA protein expression capable of securing the recovery of the injured cell is confirmed. For this, a liver tissue is homogenized by lysis buffer (25 mM HEPES, pH 7.5, 5 mM EDTA, 2 mM DTT, 0.1% CHAPS) containing the protease inhibitor and then centrifuged by 14,000×g at 4° C. Thereafter, the protein concentration of the obtained upper layer solution is measured by means of a BCA protein assay kit. A loading process is performed by 50[…] per each lane, an electrophoresis process is performed by SDS-PAGE, and thereafter it is moved toward the PVDF membrane (Millipore, USA). At this time, the rainbow molecular marker (amersham) is used as the standard molecular weight. In the separated protein, the expressin of the caspase-3 protein is confirmed by means of Super Signal West Pico Chemiluminescent Substrate (pierce biotechnology incorporation, USA). […]

[2] = tested on: caspase-3, PARP, Bcl-2 in liver cell; experiment: Western blot of cell apoptosis related proteins in liver cell treated by AAP; assay type: cell-based; conditions: liver cell treated by AAP according to the concentration, 24 hours
Protocol: Through the above results, since it is confirmed that the cell apoptosis of the liver cell is induced by AAP, the liver cell is treated by means of AAP according to the concentration and the western blot is executed to observe the expression modes of the protein related to the cell apoptosis. For this, a cell is cultured at a culture dish of 100-mm diameter until it become a confluent monolayer of a confluent state by a medium containing 10% FBS. Thereafter, the medium is replaced with a serum free medium and cultured for 24 hours. After 24 hours, each sample is treated by a serum free medium added according to the concentration and cultured for 24 hours. The culture solution is removed, then washed by the cold PBS solution, and thereafter the cell is recovered through the cell lysate buffer solution containing 1% triton. After the centrifugal process, 4× Laemmli sample buffer (13.3% SDS, 0.4M Tris, 0.013% bromopheno blue, 40% glycerol, pH 6.5) is added to the obtained upper layer solution by 1× of concentration and then an electrophoresis manner is performed in 12.5% SDS-polyacrylamid gel by means of Mighty Small II Apparatus (Hopper Science Instruments, USA). After the electrophoresis manner, the protein separated into the gel is transferred to Immobilon-P membrane (Milipore corporation, the pore size: 0.1[…], USA) by means of Semi-dry Transfer unit, Sigma, USA), reacted at the room temperature for 2 hours in 1×TBS (Tris-buffered saline; 20 mM Tris-base, 137 mM NaCl, 1M HCl) containing 1% BSA, and thereafter left for a night at 4° C. by a primary antibody. Thereafter, the protein is washed by three times at each 10 minutes by TBS-T (Tris-buffered saline, 0.1% Tween 20) and reacted at the room temperature for 1 hour together with the anti-rabbit or anti-mouse IgG-conjugated horseradish peroxide secondary antibody diluted by 1:20,000. […]

[3] = rats, mean ± S.D. of 10 per group; AAP 700 mg/kg into the abdominal cavity, seaweed protein orally for two weeks
Protocol: Animals for the experiment are male rats (body weight of 100±10 g), as Sparague Dawley of four-week-old, obtained from Hyochang science. 10 rats are divided into three groups, respectively (control group, AAP sole administration group and AAP+seaweed protein administration group), bred in row breeding cages for 7 days as a domestication preparation breeding. At this time, the temperature (22±1° C.), humidity (50±10%) and brightness (12 hours, 08˜18:00) of a breeding room are strictly controlled. After performing the domestication preparation breeding, general feed and water are freely supplied and then a saline solution (control group and AAP sole administration group) and the seaweed protein are orally administrated for two weeks. 700 mg/kg of AAP melted by DMSO is administrated into the abdominal cavity and after 24 hours, heads of rats are cut and then a blood-gathering process is performed. […] And the liver is extracted and washed by the saline solution and thereafter the weight thereof is measured and a part thereof is fixed into the bouin solution (picric acid:formalin:glacial acid=15:5:1). […]
To examine the influence on the liver tissue, liver weight and the change of body weight of the seaweed protein separated and purified at the example 1, the liver tissue of a rat is extracted and its weight is measured.

HepG2 cell = experiment: Cell apoptosis of the liver cell line by AAP (DAPI dyeing, DNA fragmentation); assay type: cell-based; conditions: HepG2, culture for 24 hours with AAP
From the text: Accordingly, to confirm that the cell proliferation inhibition effect by AAP is a phenomenon by the cell apoptosis, the cell with AAP and cell with no AAP are washed by PBS by means of the characteristics in which only DNA within the cell nucleus, especially, only the cell apoptosis DNA is dyed. Thereafter, the cells are dyed by the DAPI solution and then observed by a fluorescent microscopy.
Specifically, the HepG2 cell treated by the seaweed protein is washed by PBS, fixed at the room temperature for 10 minutes by 3.7% of paraformaldehyde, and dyed by means of the 4,6-diamindino-2-phenylindole (DAPI)(sigma) solution as fluorescent materials for 10 minutes. These cells are again washed by twice and the form change of the nucleus thereof is compared with that of the normal group by means of a fluorescence microscope.
To examine the DNA fragmentation phenomenon, the seaweed protein purified by the example 1 is added to the liver cell by concentration (0˜100[…]/□), then cultured for 24 hours, and thereafter mixed with the homogenate (nuclear lysis buffer, 100 mM NaCl2, 40 mM Tris-Cl, pH 7.4, 20 mM EDTA, 0.5% SDS). […] 10[…] of DNA is treated by an electrophoresis manner (50V, 2 hours) in the agarose cell, dyed by editium bromide, and measured by means of ultraviolet rays and the like.

SMILES: CC(=O)Nc1ccc(O)cc1 [AAP, Acetaminophen]
- Cleaved caspase-3 with activation (FIG. 9) [1]: the activated and cleaved caspase-3 is increased
- Caspase-3 cleavage/activity (western blot, FIG. 8) [2]: cleaved and then the activity is increased
- Expression of Bcl-2 (western blot, FIG. 8) [2]: inhibited according to the increase of the AAP concentration
- PARP cleavage (western blot, FIG. 8) [2]: cleaved from 116 kDa to 85 kDa
- Final body weight [3]: 299 ± 14.92 g
- Weight of liver [3]: 10.86 ± 0.9 g
- Cell apoptosis by DAPI dyeing (FIG. 8) (HepG2 cell): many cell apoptosis modes with the red color are formed
- DNA fragmentation in liver cell (FIG. 8) (HepG2 cell): The DNA fractions are confirmed identically
